Assay results from patent publication US9845292B2 (Max-Planck-Gesellschaft zur Förderung der Wissenschaften …, priority 2013, dated 2017).
pKi: −log10 of the molar value.

What was measured:
[1] = target: T1, FKBP51 (Homo sapiens, UniProt Q13451); assay: Fluorescence polarization binding assay, FK1-domain of FKBP51WT with tracer F4; set-up: Purified FK1-domains of FKBP51WT (4.5 nM) with F4 (3 nM), FKBP52WT (400 nM) with F2 (20 nM); made in house; host or cells: E. coli BL21(DE3)pLysS; settings: compounds B01-C25; read-out: Affinity(Ki) for FKBP51
T1 sequence (Q13451 42-130 limits assumed): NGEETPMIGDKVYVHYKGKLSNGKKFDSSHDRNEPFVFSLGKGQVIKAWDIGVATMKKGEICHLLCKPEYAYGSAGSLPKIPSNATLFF
Method in brief: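 Competitive fluorescence polarization with tracer F4 and FKBP51 FK1 domain (wild type), compounds titrated by serial dilution from DMSO stock, run in duplicate. IC50 from four-parameter logistic fit; inhibition constants from an exact competitive-binding equation using tracer and inhibitor Kd values.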

[2] = target: T2, FKBP52 (Homo sapiens, UniProt Q02790); assay: Fluorescence polarization binding assay, FK1-domain of FKBP52WT with tracer F2 (selectivity FKBP51 vs. FKBP52); settings: selectivity factor over FKBP52; compounds B01-C25
T2 construct: Purified FK1-domains of FKBP51WT (4.5 nM) with F4 (3 nM), FKBP52WT (400 nM) with F2 (20 nM); implied by Ni-NTA purification) (N); made in house; host or cells: E. coli BL21(DE3)pLysS
T2 sequence (Q02790 50-138 limits assumed): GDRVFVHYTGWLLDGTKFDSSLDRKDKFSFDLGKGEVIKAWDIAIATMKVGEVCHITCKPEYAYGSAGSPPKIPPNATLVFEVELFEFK
Method in brief: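 Compounds titrated against FK1 domain of FKBP52 WT with fluorescent tracer F2, in duplicate; competition curves fitted to four-parameter logistic for IC50. Ki derived from exact competitive-binding equation using tracer Kd; selectivity expressed as Ki(FKBP51)/Ki(FKBP52).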

Row | SMILES | pKi [1] | Ki(FKBP51)/Ki(FKBP52) [2]
1 | COc1cc([C@@H](C(=O)N2CCCC[C@H]2C(=O)NC2(C(N)=O)CCCC2)C2CCCCC2)cc(OC)c1OC [Compound B28, (S)-N-(1-carbamoylcyclopentyl)-1-((S)-2-cyclohexyl-2-(3,4,5-trimethoxyphenyl)acetyl)piperidine-2-carboxamide] | 6.00 to 7.00 | ++++ (>5000 ++++)
2 | COc1cc([C@@H](C(=O)N2CCCC[C@H]2C(=O)NCCC(N)=O)C2CCCCC2)cc(OC)c1OC [Compound B29, (S)-N-(3-amino-3-oxopropyl)-1-((S)-2-cyclohexyl-2-(3,4,5-trimethoxyphenyl)acetyl)piperidine-2-carboxamide] | 5.00 to 6.00 | ++ (>50 ++)
3 | COc1cc([C@@H](C(=O)N2CCCC[C@H]2C(=O)N[C@@H](CC(C)C)C(N)=O)C2CCCCC2)cc(OC)c1OC [Compound B30, (S)-N-((S)-1-amino-4-methyl-1-oxopentan-2-yl)-1-((S)-2-cyclohexyl-2-(3,4,5-trimethoxyphenyl)acetyl)piperidine-2-carboxamide] | 5.00 to 6.00 | ++ (>50 ++)
4 | COc1cc([C@@H](C(=O)N2CCCC[C@H]2C(=O)NC2(C(N)=O)CCCCC2)C2CCCCC2)cc(OC)c1OC [Compound B31, (S)-N-(1-carbamoylcyclohexyl)-1-((S)-2-cyclohexyl-2-(3,4,5-trimethoxyphenyl)acetyl)piperidine-2-carboxamide] | 5.00 to 6.00 | ++ (>50 ++)
5 | COc1cc([C@@H](C(=O)N2CCCC[C@H]2C(=O)NC2(C(N)=O)CCOCC2)C2CCCCC2)cc(OC)c1OC [Compound B32] | 4.30 to 5.00 | ++ (>50 ++)
6 | COc1cc([C@@H](C(=O)N2CCCC[C@H]2C(=O)NC2(C(=O)NCC(N)=O)CCCC2)C2CCCCC2)cc(OC)c1OC [Compound B33, (S)-N-(1-((2-amino-2-oxoethyl)carbamoyl)cyclopentyl)-1-((S)-2-cyclohexyl-2-(3,4,5-trimethoxyphenyl)acetyl)piperidine-2-carboxamide] | 5.00 to 6.00 | +++ (>500 +++)
7 | COc1cc([C@@H](C(=O)N2CCCC[C@H]2C(=O)N[C@H](Cc2c[nH]cn2)C(N)=O)C2CCCCC2)cc(OC)c1OC [Compound B34, (S)-N-((R)-1-amino-3-(1H-imidazol-4-yl)-1-oxopropan-2-yl)-1-((S)-2-cyclohexyl-2-(3,4,5-trimethoxyphenyl)acetyl)piperidine-2-carboxamide] | 4.30 to 5.00 | ++ (>50 ++)
8 | COc1cc([C@@H](C(=O)N2CCCC[C@H]2C(=O)N[C@@H](Cc2c[nH]cn2)C(N)=O)C2CCCCC2)cc(OC)c1OC [Compound B35, (S)-N-((S)-1-amino-3-(1H-imidazol-4-yl)-1-oxopropan-2-yl)-1-((S)-2-cyclohexyl-2-(3,4,5-trimethoxyphenyl)acetyl)piperidine-2-carboxamide] | 4.30 to 5.00 | + (>5 +)
9 | COC(=O)[C@@H]1CCCCN1C(=O)[C@H](c1cc(OC)c(OC)c(OC)c1)C1CCCCC1 [Compound C01, (S)-methyl 1-((S)-2-cyclohexyl-2-(3,4,5-trimethoxyphenyl)acetyl)piperidine-2-carboxylate] | 5.00 to 6.00 | ++ (>50 ++)
10 | CCOC(=O)[C@@H]1CCCCN1C(=O)[C@H](c1cc(OC)c(OC)c(OC)c1)C1CCCCC1 [Compound C02, (S)-ethyl 1-((S)-2-cyclohexyl-2-(3,4,5-trimethoxyphenyl)acetyl)piperidine-2-carboxylate] | 5.00 to 6.00 | ++ (>50 ++)
11 | CCCOC(=O)[C@@H]1CCCCN1C(=O)[C@H](c1cc(OC)c(OC)c(OC)c1)C1CCCCC1 [Compound C03, (S)-propyl 1-((S)-2-cyclohexyl-2-(3,4,5-trimethoxyphenyl)acetyl)piperidine-2-carboxylate] | 5.00 to 6.00 | +++ (>500 +++)
12 | COc1cc([C@@H](C(=O)N2CCCC[C@H]2C(=O)OC(C)C)C2CCCCC2)cc(OC)c1OC [Compound C04, (S)-isopropyl 1-((S)-2-cyclohexyl-2-(3,4,5-trimethoxyphenyl)acetyl)piperidine-2-carboxylate] | 6.00 to 7.00 | +++ (>500 +++)
13 | CCNC(=O)[C@@H]1CCCCN1C(=O)[C@H](c1cc(OC)c(OC)c(OC)c1)C1CCCCC1 [Compound C05, (S)-1-((S)-2-cyclohexyl-2-(3,4,5-trimethoxyphenyl)acetyl)-N-ethylpiperidine-2-carboxamide] | 4.30 to 5.00 | ++ (>50 ++)
14 | COc1cc([C@@H](C(=O)N2CCCC[C@H]2C(=O)O)C2CCCCC2)cc(OC)c1OC [Compound C06, (S)-1-((S)-2-cyclohexyl-2-(3,4,5-trimethoxyphenyl)acetyl)piperidine-2-carboxylic acid] | 4.30 to 5.00 | + (>5 +)
15 | CC[C@H](C)OC(=O)[C@@H]1CCCCN1C(=O)[C@H](c1cc(OC)c(OC)c(OC)c1)C1CCCCC1 [Compound C07, (S)-(S)-sec-butyl-1-((S)-2-cyclohexyl-2-(3,4,5-trimethoxyphenyl)acetyl) piperidine-2-carboxylate] | 4.30 to 5.00 | ++ (>50 ++)
16 | CCC(CC)OC(=O)[C@@H]1CCCCN1C(=O)[C@H](c1cc(OC)c(OC)c(OC)c1)C1CCCCC1 [Compound C09, (S)-pentan-3-yl-1-((S)-2-cyclohexyl-2-(3,4,5-trimethoxyphenyl)acetyl)piperidine-2-carboxylate] | 4.30 to 5.00 | ++ (>50 ++)
17 | COc1cc([C@@H](C(=O)N2CCCC[C@H]2C(=O)OC(C)(C)C)C2CCCCC2)cc(OC)c1OC [Compound C10, (S)-tert-butyl-1-((S)-2-cyclohexyl-2-(3,4,5-trimethoxyphenyl)acetyl)piperidine-2-carboxylate] | 5.00 to 6.00 | +++ (>500 +++)
18 | COc1cc([C@@H](C(=O)N2CCCC[C@H]2C(=O)OC2(C)CCCC2)C2CCCCC2)cc(OC)c1OC [Compound C11, (S)-1-methylcyclopentyl-1-((S)-2-cyclohexyl-2-(3,4,5-trimethoxyphenyl)acetyl) piperidine-2-carboxylate] | 5.00 to 6.00 | +++ (>500 +++)
19 | COc1cc([C@@H](C(=O)N2CCCC[C@H]2C(=O)OC2CCOCC2)C2CCCCC2)cc(OC)c1OC [Compound C12, (S)-tetrahydro-2H-pyran-4-yl-1-((S)-2-cyclohexyl-2-(3,4,5-trimethoxyphenyl)acetyl)piperidine-2-carboxylate] | 5.00 to 6.00 | +++ (>500 +++)
20 | COc1cc([C@@H](C(=O)N2CCCC[C@H]2C(=O)OC2CCCC2)C2CCCCC2)cc(OC)c1OC [Compound C13, (S)-cyclopentyl-1-((S)-2-cyclohexyl-2-(3,4,5-trimethoxyphenyl)acetyl)piperidine-2-carboxylate] | 5.00 to 6.00 | +++ (>500 +++)
21 | COc1cc([C@@H](C(=O)N2CCCC[C@H]2C(=O)OC2CC=CC2)C2CCCCC2)cc(OC)c1OC [Compound C14, (S)-cyclopent-3-en-1-yl-1-((S)-2-cyclohexyl-2-(3,4,5-trimethoxyphenyl)acetyl) piperidine-2-carboxylate] | 5.00 to 6.00 | +++ (>500 +++)
22 | COc1cc([C@@H](C(=O)N2CCCC[C@H]2C(=O)OC2CCCCCC2)C2CCCCC2)cc(OC)c1OC [Compound C16, (S)-cycloheptyl-1-((S)-2-cyclohexyl-2-(3,4,5-trimethoxyphenyl)acetyl)piperidine-2-carboxylate] | 4.30 to 5.00 | ++ (>50 ++)
23 | C=CCOC(=O)[C@@H]1CCCCN1C(=O)[C@H](c1cc(OC)c(OC)c(OC)c1)C1CCCCC1 [Compound C17, (S)-allyl-1-((S)-2-cyclohexyl-2-(3,4,5-trimethoxyphenyl)acetyl)piperidine-2-carboxylate] | 4.30 to 5.00 | ++ (>50 ++)
24 | COCCOC(=O)[C@@H]1CCCCN1C(=O)[C@H](c1cc(OC)c(OC)c(OC)c1)C1CCCCC1 [Compound C18, (S)-2-methoxyethyl-1-((S)-2-cyclohexyl-2-(3,4,5-trimethoxyphenyl)acetyl) piperidine-2-carboxylate] | 5.00 to 6.00 | ++ (>50 ++)
25 | COc1cc([C@@H](C(=O)N2CCCC[C@H]2C(=O)OCCOCc2ccccc2)C2CCCCC2)cc(OC)c1OC [Compound C19, (S)-2-(benzyloxy)ethyl-1-((S)-2-cyclohexyl-2-(3,4,5-trimethoxyphenyl)acetyl) piperidine-2-carboxylate] | 5.00 to 6.00 | ++ (>50 ++)
26 | COc1cc([C@@H](C(=O)N2CCCC[C@H]2C(=O)OCCO)C2CCCCC2)cc(OC)c1OC [Compound C20, (S)-2-hydroxyethyl-1-((S)-2-cyclohexyl-2-(3,4,5-trimethoxyphenyl)acetyl)piperidine-2-carboxylate] | 5.00 to 6.00 | +++ (>500 +++)
